Results from ChEMBL document CHEMBL2029272, “7-Azabicyclo[2.2.1]heptane as a scaffold for the development of selective sigma-2 (σ2) receptor ligands” (Bioorg Med Chem Lett, 2012).

How the values were obtained:
[1] = target: Mu-type opioid receptor (Homo sapiens) (UniProt P35372); test: Inhibition of mu opioid receptor at 10 uM
Rattus norvegicus = organism: Rattus norvegicus; test: Inhibition of BZP receptor in rat brain at 10 uM; type: tissue-based
[2] = target: T1, 5-hydroxytryptamine receptor 1A (Homo sapiens) (UniProt P08908); test: Inhibition of 5-HT1A receptor at 10 uM
T1 sequence (whole entry): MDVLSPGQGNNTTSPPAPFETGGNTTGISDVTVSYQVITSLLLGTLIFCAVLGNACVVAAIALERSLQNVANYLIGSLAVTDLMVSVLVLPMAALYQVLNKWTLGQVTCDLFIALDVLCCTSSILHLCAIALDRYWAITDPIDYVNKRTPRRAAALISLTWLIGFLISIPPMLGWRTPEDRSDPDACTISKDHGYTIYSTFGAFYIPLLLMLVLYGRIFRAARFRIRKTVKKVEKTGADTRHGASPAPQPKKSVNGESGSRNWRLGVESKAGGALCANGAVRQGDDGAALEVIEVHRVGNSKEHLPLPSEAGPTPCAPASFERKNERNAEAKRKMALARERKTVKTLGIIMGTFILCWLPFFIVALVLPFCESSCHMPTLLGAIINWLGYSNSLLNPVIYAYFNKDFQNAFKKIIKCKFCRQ

[3] = target: 5-hydroxytryptamine receptor 1E (Homo sapiens) (UniProt P28566); test: Inhibition of 5-HT1E receptor at 10 uM
5-hydroxytryptamine receptor 1E (Homo sapiens), sequence (P28566 whole entry): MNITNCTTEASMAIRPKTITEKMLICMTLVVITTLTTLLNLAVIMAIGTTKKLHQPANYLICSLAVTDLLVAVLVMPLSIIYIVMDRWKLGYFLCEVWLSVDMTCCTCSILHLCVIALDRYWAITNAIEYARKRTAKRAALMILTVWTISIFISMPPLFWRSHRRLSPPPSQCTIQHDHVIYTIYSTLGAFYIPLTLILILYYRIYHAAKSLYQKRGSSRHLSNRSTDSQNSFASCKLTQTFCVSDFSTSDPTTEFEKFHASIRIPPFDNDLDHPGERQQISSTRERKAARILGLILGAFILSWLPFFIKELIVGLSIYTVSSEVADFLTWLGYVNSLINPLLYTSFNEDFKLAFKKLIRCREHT

[4] = target: T2, Alpha-1A adrenergic receptor (Homo sapiens) (UniProt P35348); test: Inhibition of alpha1A adrenergic receptor at 10 uM
T2 sequence (whole entry): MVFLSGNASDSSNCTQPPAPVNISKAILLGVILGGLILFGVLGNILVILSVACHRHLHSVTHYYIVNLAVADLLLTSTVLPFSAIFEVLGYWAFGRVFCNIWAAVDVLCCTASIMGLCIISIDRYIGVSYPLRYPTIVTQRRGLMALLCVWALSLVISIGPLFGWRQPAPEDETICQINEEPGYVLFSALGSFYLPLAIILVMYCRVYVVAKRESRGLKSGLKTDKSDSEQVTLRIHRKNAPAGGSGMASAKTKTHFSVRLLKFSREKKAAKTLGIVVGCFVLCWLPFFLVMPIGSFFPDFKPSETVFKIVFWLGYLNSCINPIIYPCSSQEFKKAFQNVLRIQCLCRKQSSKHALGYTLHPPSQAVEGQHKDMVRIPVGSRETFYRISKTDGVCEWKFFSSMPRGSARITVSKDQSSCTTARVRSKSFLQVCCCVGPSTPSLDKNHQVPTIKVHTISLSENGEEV

[5] = target: Sodium-dependent noradrenaline transporter (Homo sapiens) (UniProt P23975); test: Inhibition of NET at 10 uM
Sodium-dependent noradrenaline transporter (Homo sapiens), sequence (P23975 whole entry): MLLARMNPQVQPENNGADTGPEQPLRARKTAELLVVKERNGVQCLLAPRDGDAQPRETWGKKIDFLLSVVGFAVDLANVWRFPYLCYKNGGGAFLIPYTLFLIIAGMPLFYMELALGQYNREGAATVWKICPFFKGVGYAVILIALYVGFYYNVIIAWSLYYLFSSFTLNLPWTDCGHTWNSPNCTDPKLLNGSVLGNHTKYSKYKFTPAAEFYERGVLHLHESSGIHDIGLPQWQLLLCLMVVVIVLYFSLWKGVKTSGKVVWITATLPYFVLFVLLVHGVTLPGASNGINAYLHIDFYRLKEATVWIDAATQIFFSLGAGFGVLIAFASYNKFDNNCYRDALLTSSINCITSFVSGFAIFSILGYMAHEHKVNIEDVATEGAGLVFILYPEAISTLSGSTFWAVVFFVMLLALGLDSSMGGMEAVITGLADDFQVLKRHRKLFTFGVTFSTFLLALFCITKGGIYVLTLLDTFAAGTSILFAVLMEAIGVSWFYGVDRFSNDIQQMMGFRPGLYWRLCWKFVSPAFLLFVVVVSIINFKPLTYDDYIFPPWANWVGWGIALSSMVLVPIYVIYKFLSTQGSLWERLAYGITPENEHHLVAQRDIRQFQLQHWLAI

[6] = target: T3, 5-hydroxytryptamine receptor 3A (Homo sapiens) (UniProt P46098); test: Inhibition of 5-HT3 receptor at 10 uM
T3 sequence (whole entry): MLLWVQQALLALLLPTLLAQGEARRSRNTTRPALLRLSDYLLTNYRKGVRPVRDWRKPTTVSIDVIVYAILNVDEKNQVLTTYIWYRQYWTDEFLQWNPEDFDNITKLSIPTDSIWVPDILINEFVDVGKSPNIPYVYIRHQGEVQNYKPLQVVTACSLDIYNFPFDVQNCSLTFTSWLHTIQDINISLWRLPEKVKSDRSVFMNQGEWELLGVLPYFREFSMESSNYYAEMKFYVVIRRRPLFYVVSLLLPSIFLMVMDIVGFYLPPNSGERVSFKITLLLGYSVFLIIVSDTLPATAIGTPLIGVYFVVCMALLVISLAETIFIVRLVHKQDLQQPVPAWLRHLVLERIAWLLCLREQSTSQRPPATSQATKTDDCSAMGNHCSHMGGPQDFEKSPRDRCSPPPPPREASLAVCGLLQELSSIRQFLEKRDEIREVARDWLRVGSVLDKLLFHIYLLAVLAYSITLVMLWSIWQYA

[7] = target: D(1A) dopamine receptor (Homo sapiens) (UniProt P21728); test: Inhibition of D1 dopamine receptor at 10 uM
D(1A) dopamine receptor (Homo sapiens), sequence (P21728 whole entry): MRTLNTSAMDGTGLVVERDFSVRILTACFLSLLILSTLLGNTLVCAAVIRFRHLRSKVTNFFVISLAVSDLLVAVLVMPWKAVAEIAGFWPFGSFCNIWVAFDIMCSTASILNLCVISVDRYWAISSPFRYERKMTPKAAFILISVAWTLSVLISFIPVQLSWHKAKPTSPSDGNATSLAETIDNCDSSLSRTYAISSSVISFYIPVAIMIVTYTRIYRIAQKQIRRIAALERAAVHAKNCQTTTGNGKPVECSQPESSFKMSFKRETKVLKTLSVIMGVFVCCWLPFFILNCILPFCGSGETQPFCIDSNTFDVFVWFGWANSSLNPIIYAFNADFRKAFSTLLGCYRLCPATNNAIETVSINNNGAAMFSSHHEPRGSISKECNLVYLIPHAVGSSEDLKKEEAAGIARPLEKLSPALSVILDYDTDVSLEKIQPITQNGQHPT

[8] = target: Beta-3 adrenergic receptor (Homo sapiens) (UniProt P13945); test: Inhibition of beta3 adrenergic receptor at 10 uM
Beta-3 adrenergic receptor (Homo sapiens), sequence (P13945 whole entry, looked up): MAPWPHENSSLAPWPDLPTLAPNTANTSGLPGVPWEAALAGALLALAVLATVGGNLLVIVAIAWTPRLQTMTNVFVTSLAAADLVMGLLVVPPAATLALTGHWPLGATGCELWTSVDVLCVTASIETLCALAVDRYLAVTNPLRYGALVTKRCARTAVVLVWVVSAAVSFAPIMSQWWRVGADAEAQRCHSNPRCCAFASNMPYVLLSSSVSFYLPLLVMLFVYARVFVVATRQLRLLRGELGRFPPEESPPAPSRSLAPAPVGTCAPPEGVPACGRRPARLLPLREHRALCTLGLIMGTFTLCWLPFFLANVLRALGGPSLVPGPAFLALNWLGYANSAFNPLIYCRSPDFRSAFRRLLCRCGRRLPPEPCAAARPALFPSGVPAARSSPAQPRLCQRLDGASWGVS

[9] = target: Histamine H1 receptor (Homo sapiens) (UniProt P35367); test: Inhibition of H1 receptor at 10 uM
Histamine H1 receptor (Homo sapiens), sequence (P35367 whole entry): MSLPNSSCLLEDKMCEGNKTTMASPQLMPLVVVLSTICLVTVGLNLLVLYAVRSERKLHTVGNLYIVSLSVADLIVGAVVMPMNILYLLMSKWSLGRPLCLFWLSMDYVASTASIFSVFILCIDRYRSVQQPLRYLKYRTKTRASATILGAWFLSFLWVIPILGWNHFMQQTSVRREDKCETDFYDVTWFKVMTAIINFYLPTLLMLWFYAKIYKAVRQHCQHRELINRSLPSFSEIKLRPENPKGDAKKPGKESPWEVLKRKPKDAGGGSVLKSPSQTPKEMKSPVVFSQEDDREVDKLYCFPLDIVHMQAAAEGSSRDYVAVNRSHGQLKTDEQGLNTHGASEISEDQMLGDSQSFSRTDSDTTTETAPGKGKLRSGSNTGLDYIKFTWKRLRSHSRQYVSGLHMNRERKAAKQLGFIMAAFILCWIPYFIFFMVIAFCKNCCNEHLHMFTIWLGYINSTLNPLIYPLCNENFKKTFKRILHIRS

[10] = target: 5-hydroxytryptamine receptor 5A (Homo sapiens) (UniProt P47898); test: Inhibition of 5-HT5A receptor at 10 uM
5-hydroxytryptamine receptor 5A (Homo sapiens), sequence (P47898 whole entry): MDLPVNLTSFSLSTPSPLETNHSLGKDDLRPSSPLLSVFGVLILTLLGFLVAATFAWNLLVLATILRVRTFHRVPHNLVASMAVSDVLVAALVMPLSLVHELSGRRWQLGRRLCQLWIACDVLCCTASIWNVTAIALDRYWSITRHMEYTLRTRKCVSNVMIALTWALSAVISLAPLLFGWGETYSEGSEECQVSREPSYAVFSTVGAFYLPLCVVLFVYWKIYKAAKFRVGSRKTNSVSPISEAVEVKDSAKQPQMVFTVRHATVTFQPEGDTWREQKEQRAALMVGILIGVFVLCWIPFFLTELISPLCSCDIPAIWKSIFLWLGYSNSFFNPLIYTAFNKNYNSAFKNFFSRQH

[11] = target: Beta-2 adrenergic receptor (Homo sapiens) (UniProt P07550); test: Inhibition of beta2 adrenergic receptor at 10 uM
Beta-2 adrenergic receptor (Homo sapiens), sequence (P07550 whole entry, looked up): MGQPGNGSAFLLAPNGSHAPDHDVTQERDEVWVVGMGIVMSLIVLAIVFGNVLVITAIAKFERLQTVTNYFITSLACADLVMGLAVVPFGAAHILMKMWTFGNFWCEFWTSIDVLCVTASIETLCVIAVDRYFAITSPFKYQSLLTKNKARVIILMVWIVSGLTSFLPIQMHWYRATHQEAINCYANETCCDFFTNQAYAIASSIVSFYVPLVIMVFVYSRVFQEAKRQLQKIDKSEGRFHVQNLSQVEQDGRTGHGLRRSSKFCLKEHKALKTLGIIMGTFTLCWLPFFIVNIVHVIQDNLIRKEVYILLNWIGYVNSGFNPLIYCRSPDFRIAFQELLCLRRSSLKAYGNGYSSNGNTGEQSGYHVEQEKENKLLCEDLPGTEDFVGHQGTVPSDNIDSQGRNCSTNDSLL

[12] = target: 5-hydroxytryptamine receptor 2A (Homo sapiens) (UniProt P28223); test: Inhibition of 5-HT2A receptor at 10 uM
5-hydroxytryptamine receptor 2A (Homo sapiens), sequence (P28223 whole entry): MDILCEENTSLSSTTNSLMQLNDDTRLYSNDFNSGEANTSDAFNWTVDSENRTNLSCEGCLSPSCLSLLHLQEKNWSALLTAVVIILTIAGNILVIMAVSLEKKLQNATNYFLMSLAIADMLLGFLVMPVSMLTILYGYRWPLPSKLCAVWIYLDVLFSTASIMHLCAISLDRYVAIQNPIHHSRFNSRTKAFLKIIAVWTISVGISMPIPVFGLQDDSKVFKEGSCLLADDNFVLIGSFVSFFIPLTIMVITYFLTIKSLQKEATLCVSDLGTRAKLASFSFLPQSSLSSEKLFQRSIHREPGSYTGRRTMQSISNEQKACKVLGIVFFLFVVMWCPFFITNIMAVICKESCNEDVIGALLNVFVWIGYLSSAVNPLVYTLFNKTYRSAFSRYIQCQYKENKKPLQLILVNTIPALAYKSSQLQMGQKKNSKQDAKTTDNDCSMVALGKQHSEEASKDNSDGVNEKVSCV

[13] = target: 5-hydroxytryptamine receptor 1B (Homo sapiens) (UniProt P28222); test: Inhibition of 5-HT1B receptor at 10 uM
5-hydroxytryptamine receptor 1B (Homo sapiens), sequence (P28222 whole entry): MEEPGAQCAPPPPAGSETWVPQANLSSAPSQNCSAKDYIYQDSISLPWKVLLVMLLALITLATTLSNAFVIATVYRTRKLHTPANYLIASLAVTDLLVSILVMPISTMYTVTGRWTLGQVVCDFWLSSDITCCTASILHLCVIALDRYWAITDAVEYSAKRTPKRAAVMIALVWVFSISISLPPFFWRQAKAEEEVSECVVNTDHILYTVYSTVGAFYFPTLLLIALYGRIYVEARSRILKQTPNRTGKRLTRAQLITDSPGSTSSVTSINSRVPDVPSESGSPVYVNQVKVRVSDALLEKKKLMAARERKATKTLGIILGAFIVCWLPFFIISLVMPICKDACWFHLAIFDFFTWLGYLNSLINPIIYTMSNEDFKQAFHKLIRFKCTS

[14] = target: 5-hydroxytryptamine receptor 6 (Homo sapiens) (UniProt P50406); test: Inhibition of 5-HT6 receptor at 10 uM
5-hydroxytryptamine receptor 6 (Homo sapiens), sequence (P50406 whole entry): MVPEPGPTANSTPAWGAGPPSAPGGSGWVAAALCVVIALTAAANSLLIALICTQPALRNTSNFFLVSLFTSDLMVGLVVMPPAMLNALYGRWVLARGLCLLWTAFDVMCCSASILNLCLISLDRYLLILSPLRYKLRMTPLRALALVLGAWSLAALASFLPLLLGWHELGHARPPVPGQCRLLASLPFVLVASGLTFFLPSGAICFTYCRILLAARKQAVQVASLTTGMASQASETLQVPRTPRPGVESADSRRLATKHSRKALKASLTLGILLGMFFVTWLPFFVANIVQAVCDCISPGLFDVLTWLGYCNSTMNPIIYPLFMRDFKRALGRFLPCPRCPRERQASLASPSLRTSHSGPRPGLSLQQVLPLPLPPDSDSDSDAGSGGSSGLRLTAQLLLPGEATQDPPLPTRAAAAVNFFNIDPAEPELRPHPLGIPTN

[15] = target: T4, Alpha-2A adrenergic receptor (Homo sapiens) (UniProt P08913); test: Inhibition of alpha2A adrenergic receptor at 10 uM
T4 sequence (whole entry): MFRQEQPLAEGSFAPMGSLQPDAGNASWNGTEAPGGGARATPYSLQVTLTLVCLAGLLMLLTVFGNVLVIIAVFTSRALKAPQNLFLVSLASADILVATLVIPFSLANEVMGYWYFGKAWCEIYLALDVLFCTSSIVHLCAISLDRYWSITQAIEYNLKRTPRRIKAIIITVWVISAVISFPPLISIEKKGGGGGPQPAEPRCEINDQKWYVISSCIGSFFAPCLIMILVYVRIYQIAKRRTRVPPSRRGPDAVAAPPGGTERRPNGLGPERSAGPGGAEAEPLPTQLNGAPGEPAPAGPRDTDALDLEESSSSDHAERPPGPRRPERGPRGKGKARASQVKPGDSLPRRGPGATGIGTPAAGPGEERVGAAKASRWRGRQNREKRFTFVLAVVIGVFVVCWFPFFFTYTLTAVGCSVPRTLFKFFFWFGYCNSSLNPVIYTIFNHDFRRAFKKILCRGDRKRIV

Measured: inhibition

Mu-type opioid receptor (Homo sapiens), sequence (P35372 whole entry): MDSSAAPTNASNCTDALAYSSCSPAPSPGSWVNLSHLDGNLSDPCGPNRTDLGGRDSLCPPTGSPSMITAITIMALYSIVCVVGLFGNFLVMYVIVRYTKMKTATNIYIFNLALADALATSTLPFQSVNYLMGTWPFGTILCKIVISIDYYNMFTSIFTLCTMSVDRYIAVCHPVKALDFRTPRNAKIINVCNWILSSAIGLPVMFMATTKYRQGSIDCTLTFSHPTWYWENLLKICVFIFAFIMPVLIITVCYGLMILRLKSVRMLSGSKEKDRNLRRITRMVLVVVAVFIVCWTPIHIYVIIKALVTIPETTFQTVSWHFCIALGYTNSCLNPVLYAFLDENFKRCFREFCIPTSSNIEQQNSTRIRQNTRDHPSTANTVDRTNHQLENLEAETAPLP

C1CC2CCC1N2CC12C3C4C5C3C1C5C42 (stereo not drawn)
< 50%: all assays above

C1CCC(CN2CCCC2)CC1
< 50%: all assays above

C1CCC(CN2C3CCC2CC3)CC1
< 50%: all assays above
